Experimental data published in publication PMC5356226 (ACS chemical biology, 2016).

Experiments:
hGLUT1 [1] = target: T1, hGLUT1 (Homo sapiens, UniProt P11166); experiment: [3H]-2-deoxy-D-glucose uptake inhibition assay in CHO-hGLUT1 cells; format: cell-based
T1 sequence (P11166 1-492): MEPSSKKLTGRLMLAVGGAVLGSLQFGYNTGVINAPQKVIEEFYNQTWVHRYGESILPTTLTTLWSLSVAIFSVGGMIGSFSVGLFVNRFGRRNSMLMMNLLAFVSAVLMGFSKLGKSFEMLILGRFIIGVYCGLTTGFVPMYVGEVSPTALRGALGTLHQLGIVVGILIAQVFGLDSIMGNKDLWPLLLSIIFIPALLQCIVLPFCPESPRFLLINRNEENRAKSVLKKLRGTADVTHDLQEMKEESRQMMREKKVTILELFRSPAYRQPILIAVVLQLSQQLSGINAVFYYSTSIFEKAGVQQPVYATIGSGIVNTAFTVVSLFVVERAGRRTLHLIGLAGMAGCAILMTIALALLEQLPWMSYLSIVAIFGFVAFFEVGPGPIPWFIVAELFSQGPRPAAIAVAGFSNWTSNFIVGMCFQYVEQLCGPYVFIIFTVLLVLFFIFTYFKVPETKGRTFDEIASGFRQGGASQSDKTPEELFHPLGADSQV

hGLUT1 [2] = target: T1, hGLUT1; details: known hGLUT1 inhibitors; cited from earlier work

| SMILES | IC50 (hGLUT1 [1]) | LE (ligand efficiency) (hGLUT1 [2]) |
| --- | --- | --- |
| O=C(CCc1ccc(O)cc1)c1c(O)cc(O)cc1O[C@@H]1O[C@H](CO)[C@@H](O)[C@H](O)[C@H]1O [PUG-5, phlorizin] | 23 µM |  |
| C=C1[C@@H](C)[C@H]2[C@H](Cc3ccccc3)NC(=O)[C@]23OC(=O)/C=C/[C@H](O)CCC[C@@H](C)C/C=C/[C@H]3[C@@H]1O [cytochalasin B] |  | 0.265 kcal/mol/HA |
| C=C[C@@]1(C)CC(=O)[C@]2(O)[C@@]3(C)[C@@H](O)CCC(C)(C)[C@@H]3[C@H](O)[C@H](OC(C)=O)[C@@]2(C)O1 [forskolin] |  | 0.270 kcal/mol/HA |
